Reference: patent EP0501375A1 (priority 1991, dated 1992)
*1 amine or outer side, *2 acyl side, *3 side chain or, on linkers, in order; H or OH if unused. Where a SMILES comes first, the peptide text is derived from it. CO = O=C([*:1])[*:2]

Experiments:
alkaline protease K-16 [1] = biological target: T1, alkaline protease K-16 (Shouchella clausii, UniProt Q99405); assay: Effects of metal ions on protease activity; assay type: biochemical, Bacillus sp. KSM-K16; conditions: metal salt 1 mM; for Residual Activity: pH 9.5, 30°C for 20 minutes, relative to no metal salt; for effect on activity of the alkaline protease K-16 (in words): 30°C for 20 minutes
T1 sequence (Q99405 112-380): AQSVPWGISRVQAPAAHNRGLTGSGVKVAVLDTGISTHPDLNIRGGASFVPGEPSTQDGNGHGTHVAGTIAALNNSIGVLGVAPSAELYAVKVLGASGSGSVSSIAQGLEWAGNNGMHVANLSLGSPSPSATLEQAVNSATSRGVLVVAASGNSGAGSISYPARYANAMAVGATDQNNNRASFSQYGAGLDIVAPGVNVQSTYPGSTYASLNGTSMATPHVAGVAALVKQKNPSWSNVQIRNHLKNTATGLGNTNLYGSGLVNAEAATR
Experimental: A 1 ml portion of 50 mM boric acid-NaOH buffer (pH 10) containing 1% casein was mixed with 0.1 ml of enzyme solution, and the mixture was incubated at 40°C for 10 minutes. The reaction was stopped by adding 2 ml of a solution containing 0.123 M trichloroacetic acid, 0.246 M sodium acetate and 0.369 M acetic acid. After allowing to stand at 30°C for 20 minutes, the resulting mixture was filtered through a filter paper (manufactured by Whatman; No. 2), and the filtrate was checked for its contents of proteolytic products in accordance with the modified Folin-Lowry method. One unit of activity (1 P.U.) was defined as the amount of enzyme which produces 1 mmole of tyrosine per minute.
Effects of various metal ions on the activity of the alkaline protease K-16 were examined. A 20 mM boric acid-NaOH buffer (pH 9.5) solution containing 1 mM of a metal salt was mixed with 3.9 x 10⁻³ P.U. of the alkaline protease K-16, and the mixture was maintained at 30°C for 20 minutes. Thereafter, the thus treated mixture was diluted with 50 mM boric acid-NaOH buffer (pH 10.0) by a factor of 5 to measure residual activity which was then calculated as relative value based on the activity measured in the same manner in the absence of metal salts. […] Also, as is evident from the results described in the foregoing items (5) and (6), thermal stability of this enzyme is improved in the presence of Ca²⁺ TABLE 3

alkaline protease K-16 [2] = biological target: T1, alkaline protease K-16; assay: biochemical; assay type: biochemical, Bacillus sp. KSM-K16

O=[N+]([O-])[O-].[Ag+] [AgNO₃]
Residual Activity (alkaline protease K-16 [1]): 86%

CC(C)[C@H](NC(=O)[C@H](CCCNC(=N)N)NC(=O)N[C@@H](Cc1ccccc1)C(=O)O)C(=O)N[C@H](C=O)CCCNC(=N)N [Antipain] ({Phe-CO}-Arg-Val-Arg-aldehyde)
Residual Activity (alkaline protease K-16 [2]; pH 7): 108%

[Ca+2].[Cl-].[Cl-] [CaCl₂]
Residual Activity (alkaline protease K-16 [1]): 103%

CC(C)C[C@H](NC(=O)[C@@H](NC(=O)N[C@@H](Cc1ccccc1)C(=O)O)[C@@H]1CCN=C(N)N1)C(=O)N[C@H](C=O)Cc1ccccc1 [Chymostatin]
Residual Activity (alkaline protease K-16 [2]; pH 7): 34% | effect on activity of the alkaline protease K-16 (in words) (alkaline protease K-16 [2]; pH 7): inhibited

[Cl-].[Cl-].[Co+2] [CoCl₂]
Residual Activity (alkaline protease K-16 [1]): 103%

O=S(=O)([O-])[O-].[Cu+2] [CuSO₄]
effect on activity of the alkaline protease K-16 (in words) (alkaline protease K-16 [1]): inhibited | Residual Activity (alkaline protease K-16 [1]): 73%

O=C(O)CN(CCN(CC(=O)O)CC(=O)O)CC(=O)O [EDTA]
remaining activity at 5000 µM (alkaline protease K-16 [2]; pH 7, read-out: Residual Activity): 107%

[Cl][Hg][Cl] [HgCl₂]
effect on activity of the alkaline protease K-16 (in words) (alkaline protease K-16 [1]): inhibited | Residual Activity (alkaline protease K-16 [1]): 46%

[Cl][Ni][Cl] [NiCl₂]
Residual Activity (alkaline protease K-16 [1]): 103%

[Cl][Pb][Cl] [PbCl₂]
Residual Activity (alkaline protease K-16 [1]): 100%

[Cl-].[Cl-].[Zn+2] [ZnCl₂]
Residual Activity (alkaline protease K-16 [1]): 106%
